Read-outs that look alike come from different tables or passages of the source.
Tests used:
[1] = logP determination by HPLC on a reversed-phase column (EEC Directive 79/831 Annex V.A8); format: physicochemical; settings: for chromatographic logP: read-out: logP (pH2)
Experimental: The logP values given in the Preparation Examples and the tables above are determined in accordance with EEC Directive 79/831 Annex V.A8 by HPLC (High Performance Liquid Chromatography) on a reversed-phase column (C 18). Temperature: 43° C.
The determination is carried out in the acidic range at pH 2.3 using the mobile phases 0.1% aqueous phosphoric acid and acetonitrile; linear gradient from 10% acetonitrile to 90% acetonitrile.
Calibration is carried out using unbranched alkan-2-ones (having 3 to 16 carbon atoms) with known logP values (determination of the logP values by the retention times using linear interpolation between two successive alkanones).

[2] = tested on: larvae of the mustard beetle (Phaedon cochleariae); assay: Phaedon larvae test; format: in vivo; settings: active compound concentration 500 ppm, after 7 days, dipped cabbage leaves
Experimental: (§1) Phaedon Larvae Test Solvent: 7 parts by weight of dimethylformamide Emulsifier: 2 parts by weight of alkylaryl polyglycol ether To produce a suitable preparation of active compound, 1 part by weight of active compound is mixed with the stated amounts of solvent and emulsifier, and the concentrate is diluted with emulsifier-containing water to the desired concentration. Cabbage leaves (Brassica oleracea) are treated by being dipped into the preparation of active compound of the desired concentration and are populated with larvae of the mustard beetle (Phaedon cochleariae) while the leaves are still moist. After the desired period of time, the kill in % is determined. 100% means that all beetle larvae have been killed; 0% means that none of the beetle larvae have been killed.

[3] = tested on: caterpillars of the army worm (Spodoptera frugiperda); assay: Spodoptera frugiperda test; format: in vivo; settings: active compound concentration 500 ppm, after 7 days, dipped cabbage leaves
Experimental: as §1, with “Spodoptera Frugiperda” for “Phaedon Larvae”, “caterpillars” for “larvae”, “army worm (Spodoptera frugiperda)” for “mustard beetle (Phaedon cochleariae)”, “caterpillars” for “beetle larvae”

[4] = reversed-phase C18 HPLC column, HPLC, reversed-phase C 18, 43° C., acidic range pH 2.3, 0.1% aqueous phosphoric acid/acetonitrile
[5] = HPLC, reversed-phase C 18, 43° C., acidic range pH 2.3, 0.1% aqueous phosphoric acid/acetonitrile

Molecule | kill in % [3] | chromatographic logP [1, 4] | other results
CC(C)(C)c1nc(-c2ccc(NC(=O)N3CC(n4cc(C#N)cn4)C(c4ccc(Cl)cc4)=N3)cc2)no1 (stereo not drawn) [Compound 2, N-[4-(5-tert-butyl[1.2.4]oxadiazol-3-yl)-phenyl]-3-(4-chlorophenyl)-4-(4-cyanopyrazol-1-yl)-4,5-dihydro-1-pyrazolecarboxamide] | 100% | – | logP (pH2) ([1]; pH 2.3): 4.33; kill in % [2]: 100%
CC(C)(C)c1nnn(-c2ccc(NC(=O)N3CC(n4cc(C#N)cn4)C(c4ccc(Cl)cc4)=N3)cc2)n1 (stereo not drawn) [Compound 5, N-[4-(5-tert-butyltetrazol-2-yl)phenyl]-3-(4-chlorophenyl)-4-(4-cyanopyrazol-1-yl)-4,5-dihydro-1-pyrazolecarboxamide] | – | 4.27 | –
CC(C)(C)c1noc(-c2ccc(NC(=O)N3CC(n4cc(C#N)cn4)C(c4ccc(Cl)cc4)=N3)cc2)n1 (stereo not drawn) [Compound 3, N-[4-(3-tert-butyl[1,2,4]oxadiazol-5-yl)-phenyl]-3-(4-chlorophenyl)-4-(4-cyanopyrazol-1-yl)-4,5-dihydro-1-pyrazolecarbox-amide] | 100% | – | logP (pH2) ([1]; pH 2.3): 4.38
N#Cc1cnn(C2CN(C(=O)Nc3ccc(-c4ccccc4)cc3)N=C2c2ccc(Cl)cc2)c1 (stereo not drawn) [Compound 1, N-(4-phenyl)-3-(4-chlorophenyl)-4-(4-cyanopyrazol-1-yl)-4,5-dihydro-1-pyrazolecarboxanilide] | 100% | 4.11 | –
CC(C)(C)n1nnc(-c2ccc(NC(=O)N3CC(n4cc(C#N)cn4)C(c4ccc(Cl)cc4)=N3)cc2)n1 (stereo not drawn) [Compound 4, N-[4-(2-tert-butyltetrazol-5-yl)phenyl]-3-(4-chlorophenyl)-4-(4-cyanopyrazol-1-yl)-4,5-dihydro-1-pyrazolecarboxamide] | 100% | 3.91 | kill in % [2]: 100%
4-(5-tert-butyltetrazol-2-yl)nitrobenzene | – | – | logP (pH2) [1, 5]: 2.20
N#Cc1cnn(C2CNN=C2c2ccc(Cl)cc2)c1 (stereo not drawn) [3-(4-chlorophenyl)-4-(4-cyanopyrazol-1-yl)-4,5-dihydro-1H-pyrazole] | – | 2.11 | –
CC(C)(C)c1noc(-c2ccc(N)cc2)n1 [4-(3-tert-butyl[1,2,4]oxadiazol-5-yl)aniline] | – | 2.54 | –
CC(C)(C)c1nc(-c2ccc(N)cc2)no1 [4-(5-tert-butyl[1,2,4]oxadiazol-3-yl)aniline] | – | 2.31 | –
N#Cc1cnn(CC(=O)c2ccc(Cl)cc2)c1 [2-(4-cyanopyrazol-1-yl)-4′-chloroacetophenone] | – | – | chromatographic logP [1, 5]: 2.2
CC(C)(C)c1nnn(-c2ccc(N)cc2)n1 [4-(5-tert-butyltetrazol-2-yl)aniline] | – | 2.27 | –
CC(C)(C)n1nnc(-c2ccc(N)cc2)n1 [4-(2-tert-butyltetrazol-5-yl)aniline] | – | 1.69 | –

Reference: patent US20050107456A1, “Substituted pyrazolines for use as pesticides” (priority 2002, published 2005)
